In US20230146455A1, “TREATMENT OF INFLAMMATORY DISEASES WITH PEPTIDES AND PHARMACEUTICAL COMPOSITIONS” (Yuyu Pharma, Inc., priority 2020, published 2023):
Several values for one entry are separate records, joined by “and”; a condition that tells them apart may be missing. Equal values may be shown once. Where a SMILES comes first, the peptide text is derived from it. [ ]: non-standard residue; d: D form. Hyp = O=C(O)[C@@H]1C[C@@H](O)CN1

Test system: MMP-9
Assay: Example 9 Luminex, LPS hPBMCs: MMP-9
Type: cell-based, human
Description: Treatment Human PBMCs were pretreated with YY-101, YDE-011 and YDE-043 or reference compound; Xiidra® at various concentration (ranging from 1 nM to 100 uM) for 2 h before stimulation. An equal volume of 0.5% DMSO was used as a vehicle control. Then, the cells were treated with LPS at 5 ug/ml. The supernatants from treated cells were harvested at 24 h and placed in a 96 well for Luminex cytokine & chemokine profiling using a Luminex 200 multiplex assay (Luminex; R&D system, USA).
The main study arm with triplicate wells per group in a 24-well plate: • 1. Blank • 2. PBMC: 0.5% DMSO • 3. PBMC+LPS (5 ug/ml) • 4. PBMC+YY-101 100 uM • 5. PBMC+YY-101 10 uM • 6. PBMC+YY-101 1 uM • 7. PBMC+YY-101 0.1 uM • 8. PBMC+YY-101 0.01 uM • 9. PBMC+LPS (5 ug/ml)+Xiidra®100 uM • 10. PBMC+LPS (5 ug/ml)+Xiidra® 10 uM • 11. PBMC+LPS (5 ug/ml)+Xiidra® 1 uM • 12. PBMC+LPS (5 ug/ml)+Xiidra®0.1 uM • 13. PBMC+LPS (5 ug/ml)+Xiidra®0.01 uM • 14. PBMC+LPS (5 ug/ml)+Xiidra®0.001 uM • 15. PBMC+LPS (5 ug/ml)+YY-101 100 uM • 16. PBMC+LPS (5 ug/ml)+YY-101 10 uM • 17. PBMC+LPS (5 ug/ml)+YY-101 1 uM • 18. PBMC+LPS (5 ug/ml)+YY-101 0.1 uM • 19. PBMC+LPS (5 ug/ml)+YY-101 0.01 uM • 20. PBMC+LPS (5 ug/ml)+YY-101 0.001 uM • 21. PBMC+LPS (5 ug/ml)+YDE-011 100 uM • 22. PBMC+LPS (5 ug/ml)+YDE-011 10 uM • 23. PBMC+LPS (5 ug/ml)+YDE-011 1 uM • 24. PBMC+LPS (5 ug/ml)+YDE-011 0.1 uM • 25. PBMC+LPS (5 ug/ml)+YDE-011 0.01 uM • 26. PBMC+LPS (5 ug/ml)+YDE-011 0.001 uM • 27. PBMC+LPS (5 ug/ml)+YDE-043 100 uM • 28. PBMC+LPS (5 ug/ml)+YDE-043 10 uM • 29. PBMC+LPS (5 ug/ml)+YDE-043 1 uM • 30. PBMC+LPS (5 ug/ml)+YDE-043 0.1 uM • 31. PBMC+LPS (5 ug/ml)+YDE-043 0.01 uM • 32. PBMC+LPS (5 ug/ml)+YDE-043 0.001 uM
Multiplex assay was used to measure 30 cytokines and chemokines. The 1:2, 1:10 and 1:200 diluted cell supernatant and serial dilution of the standard were dispensed into a 96 well plate at 50 ul/well. Then, the pre-mixed cocktail of antibody-coated magnetic beads was dispensed at 50 ul/well and incubated at room temperature for 2 h in a horizontal orbital microplate shaker at 800±500 rpm. The beads were washed using a magnetic device to prevent loss. The biotin-antibody was dispensed in 50 ul of each well and incubated at room temperature for 1 h in a shaker at 800±500 rpm. After washing, streptavidin-PE was added at 50 ul/well and incubated at room temperature for 30 min in a shaker under the same conditions. Finally, after washing, wash buffer (100 ul/well) was added to the plate and incubated in a shaker for 2 min. The Luminex™ 200 setting were set according to the manufacturer's protocol. The data was calculated with a standard five-parameter logistic nonlinear regression analysis of the data (xPonent software 4.2, USA). The levels of cytokine/chemokine are normalized to the live cell counts (1×10^5 cells/mL) and presented as concentrations per mL (pg/mL or ng/mL).

[1] = PBMC + LPS(5 ug/ml) + 0.001 uM, Mean
[2] = PBMC + LPS(5 ug/ml) + 0.001 uM, single replicates
[3] = PBMC + LPS(5 ug/ml) + 0.01 uM, Mean
[4] = PBMC + LPS(5 ug/ml) + 0.01 uM, single replicates
[5] = PBMC + LPS(5 ug/ml) + 0.1 uM, Mean
[6] = PBMC + LPS(5 ug/ml) + 0.1 uM, single replicates
[7] = PBMC + LPS(5 ug/ml) + 1 uM, Mean
[8] = PBMC + LPS(5 ug/ml) + 1 uM, single replicates
[9] = PBMC + LPS(5 ug/ml) + 10 uM, Mean
[10] = PBMC + LPS(5 ug/ml) + 10 uM, single replicates
[11] = PBMC + LPS(5 ug/ml) + 100 uM, Mean
[12] = PBMC + LPS(5 ug/ml) + 100 uM, single replicates
[13] = PBMC + 0.01 uM, no LPS, single replicates
[14] = PBMC + 0.1 uM, no LPS, single replicates
[15] = PBMC + 1 uM, no LPS, single replicates
[16] = PBMC + 10 uM, no LPS, single replicates
[17] = PBMC + 100 uM, no LPS, single replicates

SMILES: CC(C)C[C@H](NC(=O)CNC(=O)[C@H](CC(C)C)NC(=O)[C@H](CCC(N)=O)NC(=O)CNC(=O)[C@@H]1C[C@@H](O)CN1)C(=O)N[C@@H](C)C(=O)NCC(=O)N1CCC[C@H]1C(=O)N[C@@H](CCCCN)C(=O)O [YDE-011] (H-[Hyp]GQLGLAGPK-OH)
- MMP-9 Concentration [1]: 206.3 pg/mL
- MMP-9 conc/live cell [1]: 39.4 pg/10^5
- MMP-9 Concentration [2]: 228.2 pg/mL and 186.3 pg/mL and 204.5 pg/mL
- MMP-9 conc/live cell [2]: 50.7 pg/10^5 and 32.1 pg/10^5 and 35.3 pg/10^5
- MMP-9 Concentration [3]: 180.2 pg/mL
- MMP-9 conc/live cell [3]: 31.1 pg/10^5
- MMP-9 Concentration [4]: 174.0 pg/ml (2×) and 192.4 pg/ml
- MMP-9 conc/live cell [4]: 27.6 pg/10^5 and 28.1 pg/10^5 and 37.7 pg/10^5
- MMP-9 Concentration [5]: 180.2 pg/mL
- MMP-9 conc/live cell [5]: 31.5 pg/10^5
- MMP-9 Concentration [6]: 192.4 pg/ml and 174.0 pg/ml (2×)
- MMP-9 conc/live cell [6]: 29.2 pg/10^5 and 34.8 pg/10^5 and 30.5 pg/10^5
- MMP-9 Concentration [7]: 188.3 pg/mL
- MMP-9 conc/live cell [7]: 37.5 pg/10^5
- MMP-9 Concentration [8]: 192.4 pg/ml (2×) and 180.2 pg/ml
- MMP-9 conc/live cell [8]: 35.0 pg/10^5 and 37.5 pg/10^5 and 40.1 pg/10^5
- MMP-9 Concentration [9]: 190.4 pg/mL
- MMP-9 conc/live cell [9]: 36.1 pg/10^5
- MMP-9 Concentration [10]: 186.3 pg/ml (2×) and 198.5 pg/ml
- MMP-9 conc/live cell [10]: 34.5 pg/10^5 and 34.2 pg/10^5 and 39.6 pg/10^5
- MMP-9 Concentration [11]: 167.8 pg/mL
- MMP-9 conc/live cell [11]: 27.7 pg/10^5
- MMP-9 Concentration [12]: 167.8 pg/mL and 174.0 pg/mL and 161.5 pg/mL
- MMP-9 conc/live cell [12]: 27.5 pg/10^5 and 28.5 pg/10^5 and 26.9 pg/10^5

SMILES: CC(C)C[C@H](NC(=O)[C@H](CCC(N)=O)NC(=O)CNC(=O)[C@@H]1C[C@@H](O)CN1)C(=O)NCC(=O)O [YDE-043] (H-[Hyp]GQLG-OH; N-terminus and C-terminus assumed)
- MMP-9 Concentration [1]: 222.6 pg/mL
- MMP-9 conc/live cell [1]: 45.0 pg/10^5
- MMP-9 Concentration [2]: 170.9 pg/mL and 234.0 pg/mL and 262.8 pg/mL
- MMP-9 conc/live cell [2]: 38.8 pg/10^5 and 39.0 pg/10^5 and 57.1 pg/10^5
- MMP-9 Concentration [3]: 186.3 pg/mL
- MMP-9 conc/live cell [3]: 35.6 pg/10^5
- MMP-9 Concentration [4]: 180.2 pg/mL and 186.3 pg/mL and 192.4 pg/mL
- MMP-9 conc/live cell [4]: 40.0 pg/10^5 and 28.2 pg/10^5 and 38.5 pg/10^5
- MMP-9 Concentration [5]: 173.9 pg/mL
- MMP-9 conc/live cell [5]: 32.4 pg/10^5
- MMP-9 Concentration [6]: 192.4 pg/mL and 155.2 pg/mL and 174.0 pg/mL
- MMP-9 conc/live cell [6]: 38.5 pg/10^5 and 27.7 pg/10^5 and 31.1 pg/10^5
- MMP-9 Concentration [7]: 178.0 pg/mL
- MMP-9 conc/live cell [7]: 33.5 pg/10^5
- MMP-9 Concentration [8]: 198.5 pg/mL and 155.2 pg/mL and 180.2 pg/mL
- MMP-9 conc/live cell [8]: 34.2 pg/10^5 and 32.3 pg/10^5 and 34.0 pg/10^5
- MMP-9 Concentration [9]: 189.3 pg/mL
- MMP-9 conc/live cell [9]: 35.1 pg/10^5
- MMP-9 Concentration [10]: 198.5 pg/mL and 192.4 pg/mL and 177.1 pg/mL
- MMP-9 conc/live cell [10]: 38.2 pg/10^5 and 35.6 pg/10^5 and 31.6 pg/10^5
- MMP-9 Concentration [11]: 139.0 pg/mL
- MMP-9 conc/live cell [11]: 22.1 pg/10^5
- MMP-9 Concentration [12]: 148.8 pg/mL and 129.2 pg/mL
- MMP-9 conc/live cell [12]: 24.0 pg/10^5 and 20.2 pg/10^5

SMILES: CC(C)C[C@H](NC(=O)CNC(=O)[C@H](CC(=O)O)NC(=O)[C@H](CCC(N)=O)NC(=O)CNC(=O)[C@@H]1C[C@@H](O)CN1)C(=O)N[C@@H](C)C(=O)NCC(=O)N1CCC[C@H]1C(=O)N[C@@H](CCCCN)C(=O)O [YY-101] (H-[Hyp]GQDGLAGPK-OH; N-terminus and C-terminus assumed)
- MMP-9 Concentration (PBMC + 0.01 uM, no LPS, Mean): 6947.7 pg/mL
- MMP-9 conc/live cell (PBMC + 0.01 uM, no LPS, Mean): 1395.6 pg/10^5
- MMP-9 Concentration [13]: 6464.0 pg/mL and 7431.3 pg/mL
- MMP-9 conc/live cell [13]: 1243.1 pg/10^5 and 1548.2 pg/10^5
- MMP-9 Concentration (PBMC + 0.1 uM, no LPS, Mean): 7041.0 pg/mL
- MMP-9 conc/live cell (PBMC + 0.1 uM, no LPS, Mean): 1365.4 pg/10^5
- MMP-9 Concentration [14]: 5521.9 pg/mL and 8560.2 pg/mL
- MMP-9 conc/live cell [14]: 1255.0 pg/10^5 and 1475.9 pg/10^5
- MMP-9 Concentration (PBMC + 1 uM, no LPS, Mean): 7016.7 pg/mL
- MMP-9 conc/live cell (PBMC + 1 uM, no LPS, Mean): 1275.8 pg/10^5
- MMP-9 Concentration [15]: 6666.8 pg/mL and 7366.6 pg/mL
- MMP-9 conc/live cell [15]: 1212.2 pg/10^5 and 1339.4 pg/10^5
- MMP-9 Concentration (PBMC + 10 uM, no LPS, Mean): 10460.4 pg/mL
- MMP-9 conc/live cell (PBMC + 10 uM, no LPS, Mean): 1662.8 pg/10^5
- MMP-9 Concentration [16]: 13551.9 pg/mL and 7369.0 pg/mL
- MMP-9 conc/live cell [16]: 2117.5 pg/10^5 and 1208.0 pg/10^5
- MMP-9 Concentration (PBMC + 100 uM, no LPS, Mean): 5317.6 pg/mL
- MMP-9 conc/live cell (PBMC + 100 uM, no LPS, Mean): 799.8 pg/10^5
- MMP-9 Concentration [17]: 6000.1 pg/mL and 4635.0 pg/mL
- MMP-9 conc/live cell [17]: 937.5 pg/10^5 and 662.1 pg/10^5
- MMP-9 Concentration [1]: 182.3 pg/mL
- MMP-9 conc/live cell [1]: 28.3 pg/10^5
- MMP-9 Concentration [2]: 152.0 pg/mL and 155.2 pg/mL and 239.8 pg/mL
- MMP-9 conc/live cell [2]: 26.7 pg/10^5 and 21.9 pg/10^5 and 36.3 pg/10^5
- MMP-9 Concentration [3]: 150.9 pg/mL
- MMP-9 conc/live cell [3]: 24.5 pg/10^5
- MMP-9 Concentration [4]: 161.5 pg/mL and 155.2 pg/mL and 135.8 pg/mL
- MMP-9 conc/live cell [4]: 25.2 pg/10^5 and 25.9 pg/10^5 and 22.3 pg/10^5
- MMP-9 Concentration [5]: 114.6 pg/mL
- MMP-9 conc/live cell [5]: 19.7 pg/10^5
- MMP-9 Concentration [6]: 102.0 pg/mL and 119.2 pg/mL and 122.6 pg/mL
- MMP-9 conc/live cell [6]: 16.5 pg/10^5 and 22.9 pg/10^5 and 19.8 pg/10^5
- MMP-9 Concentration [7]: 167.7 pg/mL
- MMP-9 conc/live cell [7]: 25.8 pg/10^5
- MMP-9 Concentration [8]: 155.2 pg/mL and 161.5 pg/mL and 186.3 pg/mL
- MMP-9 conc/live cell [8]: 24.6 pg/10^5 and 22.8 pg/10^5 and 30.1 pg/10^5
- MMP-9 Concentration [9]: 157.2 pg/mL
- MMP-9 conc/live cell [9]: 24.0 pg/10^5
- MMP-9 Concentration [10]: 161.5 pg/mL and 167.8 pg/mL and 142.4 pg/mL
- MMP-9 conc/live cell [10]: 26.9 pg/10^5 and 26.2 pg/10^5 and 18.7 pg/10^5
- MMP-9 Concentration [11]: 96.1 pg/mL
- MMP-9 conc/live cell [11]: 16.5 pg/10^5
- MMP-9 Concentration [12]: 98.5 pg/mL and 102.0 pg/mL and 87.7 pg/mL
- MMP-9 conc/live cell [12]: 15.6 pg/10^5 and 16.5 pg/10^5 and 17.5 pg/10^5
